{
  "source": "patent US20100130549A1",
  "about": "“PSYCHOTROPIC COMPOUNDS, COMPOSITIONS AND METHODS OF USE” (priority 2007, published 2010)",
  "key": {"ICR mice": {"system": "ICR mice", "assay": "Acute toxicity, oral administration", "type": "in vivo", "settings": "for stimulation behavior (number of rearings): acute oral", "method": "FIG. 11B illustrates the effect of administering the compound of formula (Ia) on stimulation in ICR mice.\nAcute toxicity was assessed in male BALB/c mice that had been orally administered the compound of formula (Ta). The compound of formula (Ia) was administered orally to mice at doses of 20, 25, 75, and 100 mg/kg (4 animals/group). Animals were followed for behavioral changes such as stimulation (number of rearings), and sedation, after 24, 48 and 72 hr. Body weight was determined up to 7 days after drug administration."}, "BALB/c mice [1]": {"system": "BALB/c mice", "assay": "Rotor rod test (motor activity)", "type": "in vivo", "settings": "10 mg/kg p.o., 90 min after administration; vs controls", "method": "The test was performed 90 min after oral administration of the compounds. […] The rotor rod test involves placing the mouse on an elevated rotating bar. In this test, the mouse is placed on the bar such that it is facing the direction opposite to the rotation of the rod. The time lag to fall is determined."}, "SHSY5Y cell-line": {"system": "SHSY5Y cell-line", "assay": "Cell viability, neutral red method"}, "BALBc male mice": {"system": "BALBc male mice", "assay": "Hot plate test", "type": "in vivo", "settings": "10 mg/kg orally (sertraline equimolar)", "source_text": "The hot-plate test is widely used to measure pain sensation. The latency in response to heat of mice and rats feet is based on the method described by Eddy et al., Synthetic analgesics. II. […] The method is based on placing an animal on heated (52-56 C) surface and measuring the time to response (raising paw, licking of the paw, jumping or running.\nThe animals were followed for 6 hr."}, "[2]": {"target": "Serotonin (5-Hydroxytryptamine) 5-HT6 (Homo sapiens, UniProt P50406)", "sequence (P50406 whole entry)": "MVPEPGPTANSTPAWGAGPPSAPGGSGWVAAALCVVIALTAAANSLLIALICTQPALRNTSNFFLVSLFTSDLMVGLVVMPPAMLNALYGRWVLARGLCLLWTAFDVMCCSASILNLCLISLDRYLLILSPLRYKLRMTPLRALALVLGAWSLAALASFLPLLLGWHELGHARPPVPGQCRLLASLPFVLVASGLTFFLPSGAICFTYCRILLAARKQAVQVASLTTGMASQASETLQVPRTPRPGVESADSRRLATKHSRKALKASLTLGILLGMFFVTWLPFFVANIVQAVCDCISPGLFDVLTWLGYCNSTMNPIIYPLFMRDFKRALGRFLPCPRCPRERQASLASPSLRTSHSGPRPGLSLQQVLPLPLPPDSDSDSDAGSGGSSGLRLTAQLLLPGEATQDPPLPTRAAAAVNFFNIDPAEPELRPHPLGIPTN", "assay": "Radioligand binding assay, 5-HT6", "source_text": "(§1) . Table 1 provides data produced via a receptor binding assay and IC50 and Ki determination. […] In addition, the compound of formula (Ia) has a potent DAT inhibition, which is indicative of dopaminergic uptake inhibition and increased DA activity. In addition to the effect on SERT and DAT, the compound of formula (Ia) inhibited the transporter of Norepinephrine (NET), and several neurotransmitter's receptors like alpha2A and alpha2C receptors, alpha 1A and alphal C, 5HT2A and 5HT2C, signal histamine2 and dopamine D1. This specific profile is in line with the data on antidepressant, anxiolytic and moderate neuro-stimulation activity observed in the animal model studies.\n(§2) With regard to the data provided in Table 1, the biochemical assay results are presented as the percent inhibition of specific binding or activity throughout the report. For primary assays, only the lowest concentration with a significant response judged by the assays’ criteria, is shown in this summary. […] Unless otherwise requested, primary screening in duplicate with quantitative data (e.g., IC50±SEM, Ki±SEM and nH) are shown."}, "BALB/c mice [3]": {"system": "BALB/c mice", "assay": "Open field test"}, "Adrenergic α1A": {"target": "T1, Adrenergic α1A (Rattus norvegicus, UniProt P43140)", "T1 sequence (P43140 1-466)": "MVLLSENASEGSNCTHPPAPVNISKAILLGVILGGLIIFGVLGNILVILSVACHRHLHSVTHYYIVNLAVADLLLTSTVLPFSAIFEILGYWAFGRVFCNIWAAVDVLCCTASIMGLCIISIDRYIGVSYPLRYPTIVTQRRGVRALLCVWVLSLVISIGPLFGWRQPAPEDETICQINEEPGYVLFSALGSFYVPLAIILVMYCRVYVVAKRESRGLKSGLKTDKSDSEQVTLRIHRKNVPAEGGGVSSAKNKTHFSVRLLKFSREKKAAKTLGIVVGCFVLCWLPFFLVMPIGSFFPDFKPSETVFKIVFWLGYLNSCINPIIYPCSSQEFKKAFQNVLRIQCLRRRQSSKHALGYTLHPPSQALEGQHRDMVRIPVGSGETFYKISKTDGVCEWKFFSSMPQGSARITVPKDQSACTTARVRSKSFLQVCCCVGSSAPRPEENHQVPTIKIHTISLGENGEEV", "assay": "Radioligand binding assay, Adrenergic α1A", "source_text": "as §1, §2"}, "Adrenergic α1D": {"target": "T2, Adrenergic α1D (Homo sapiens, UniProt P25100)", "T2 sequence (P25100 1-572)": "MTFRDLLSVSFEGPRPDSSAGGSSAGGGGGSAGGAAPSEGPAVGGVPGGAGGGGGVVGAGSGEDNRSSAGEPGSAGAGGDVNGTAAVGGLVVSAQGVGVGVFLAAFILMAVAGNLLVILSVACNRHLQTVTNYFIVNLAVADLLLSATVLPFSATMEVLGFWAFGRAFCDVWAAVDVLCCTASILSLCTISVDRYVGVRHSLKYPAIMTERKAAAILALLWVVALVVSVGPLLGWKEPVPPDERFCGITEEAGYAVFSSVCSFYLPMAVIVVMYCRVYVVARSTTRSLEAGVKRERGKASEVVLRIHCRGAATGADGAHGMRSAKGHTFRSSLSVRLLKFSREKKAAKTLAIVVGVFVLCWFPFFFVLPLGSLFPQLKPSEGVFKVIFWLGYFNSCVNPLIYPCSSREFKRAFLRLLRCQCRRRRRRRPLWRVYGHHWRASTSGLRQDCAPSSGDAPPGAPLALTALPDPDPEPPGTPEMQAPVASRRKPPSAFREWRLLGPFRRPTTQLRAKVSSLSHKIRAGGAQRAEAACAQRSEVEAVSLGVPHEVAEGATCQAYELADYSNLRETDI", "assay": "Radioligand binding assay, Adrenergic α1D", "source_text": "as §1, §2"}, "BALB/c mice [4]": {"system": "BALB/c mice", "assay": "Acute toxicity, ip administration", "type": "in vivo", "settings": "ip up to 30 mg/kg", "method": "[…]. […] The body weight of the mice was determined up to 12 days after administration of the compounds."}, "[5]": {"settings": "10 mg/kg (equimolar) ip 1 hr prior"}, "[6]": {"settings": "10 mg/kg (equimolar) ip 1 hr prior, p<0.001 vs controls"}},
  "note": "Several values for one entry are separate records, joined by “and”; a condition that tells them apart may be missing. Equal entries are not always repeated.",
  "data": [
    {"smiles": "CN[C@H]1CC[C@@H](c2ccc(Cl)c(Cl)c2)c2ccc(C#CCCCO)cc21", "note": "[compound Ia, (1S-cis)-4-(3,4-dichlorophenyl)-7-(5-hydroxy-1-pentyn-1-yl)-1,2,3,4-tetrahydro-N-methyl-1-naphthalenamine hydroiodide]", "values": [
      {"measurement": "survival", "setting": "ICR mice; acute oral up to 100 mg/kg", "value": "all animals survived"},
      {"measurement": "tolerability", "setting": "ICR mice; acute oral up to 100 mg/kg", "value": "well tolerated"},
      {"measurement": "stimulation behavior (number of rearings)", "setting": "ICR mice; 24 and 48hr after administration", "value": "significant increase"},
      {"measurement": "stimulation behavior (number of rearings)", "setting": "ICR mice; after 72 hr", "value": "normalization"},
      {"measurement": "muscle strength and basic motor activity", "setting": "BALB/c mice [1]", "value": "did not modify"},
      {"measurement": "increase in cell viability compared to control vehicle treated cells", "setting": "SHSY5Y cell-line; 1-5 μM, 24 and 48 hours incubation", "value": "13-25%"},
      {"measurement": "effect on cell viability over concentration range", "setting": "SHSY5Y cell-line; 1-50 μM, low concentrations neurotrophic, high concentrations apoptosis", "value": "biphasic effects"},
      {"measurement": "concentration of maximal neurotropic activity", "setting": "SHSY5Y cell-line; concentration range 1-50 μM", "value": 1, "unit": "µM"},
      {"measurement": "time after drug administration with significant effect on reaction to heating", "setting": "BALBc male mice; followed for 6 hr, hydroiodide", "value": "120 min and 240 min"},
      {"measurement": "latency to heat sensation", "setting": "BALBc male mice; vs vehicle treated control", "value": "significantly increase"},
      {"measurement": "IC50", "setting": "[2]", "value": 2600, "unit": "nM"},
      {"measurement": "nH", "setting": "[2]", "value": 1.16},
      {"measurement": "inhibition at 3 µM", "setting": "[2]; 3 μM", "value": 51, "unit": "%"},
      {"measurement": "Ki", "setting": "[2]; read-out: K1", "value": 1210, "unit": "nM"},
      {"measurement": "ratio (center/periphery)", "setting": "BALB/c mice [3]; [5]", "value": "significantly increase"},
      {"measurement": "total time spent in the center (areas 2+3)", "setting": "BALB/c mice [3]; [5]", "value": "significantly increase"},
      {"measurement": "frequency to the center", "setting": "BALB/c mice [3]; 10 mg/kg (equimolar) ip 1 hr prior, controls 1.23", "value": 1.35},
      {"measurement": "distance moved", "setting": "BALB/c mice [3]; [6]", "value": "significantly increase"},
      {"measurement": "velocity", "setting": "BALB/c mice [3]; [6]", "value": "significantly increase"},
      {"measurement": "sedative effect accompanying the anxiolytic activity", "setting": "BALB/c mice [3]; orally 90 min prior", "value": "not accompanied by a sedative effect"},
      {"measurement": "IC50", "setting": "Adrenergic α1A", "value": 4200, "unit": "nM"},
      {"measurement": "nH", "setting": "Adrenergic α1A", "value": 1.34},
      {"measurement": "inhibition at 10 µM", "setting": "Adrenergic α1A; 10 μM", "value": 73, "unit": "%"},
      {"measurement": "Ki", "setting": "Adrenergic α1A; read-out: K1", "value": 1700, "unit": "nM"},
      {"measurement": "IC50", "setting": "Adrenergic α1D", "value": 2500, "unit": "nM"},
      {"measurement": "nH", "setting": "Adrenergic α1D", "value": 1.04},
      {"measurement": "inhibition at 3 µM", "setting": "Adrenergic α1D; 3 μM", "value": 54, "unit": "%"},
      {"measurement": "Ki", "setting": "Adrenergic α1D; read-out: K1", "value": 1230, "unit": "nM"},
      {"measurement": "survival", "setting": "BALB/c mice [4]", "value": "all of the corresponding animals survived"}
    ]}
  ]
}
